The test system of series [1] is collagen plus epinephrine induced pulmonary thromboembolism. Description: Collagen-epinephrine induced pulmonary thromboembolism in mice. The series is classed as in vivo. Conditions: for inhibition in vivo at 30 µM, 30 µmol/kg: Mus musculus, po, 1 h, read-out: Protection (%). As to the method: To assess the antithrombotic efficacy of compounds, mice were grouped into vehicle, aspirin and compound treated groups, and each group included ten animals. Pulmonary thromboembolism was induced by injecting a mixture of collagen (150 μg/ml) and adrenaline (50 μg/ml) into the tail vein to achieve final doses of collagen (1.5 mg/kg) and adrenaline (0.5 mg/kg) to induce hind limb paralysis or death.^11, 12 Number of test animals killed or paralyzed were evaluated (death/paralysis were employed as endpoint to evaluate antithrombotic agents). The percent protection was calculated by taking the ratio of number of test animals killed or paralyzed to that of total tested animals. Results have been reported as percentage protection, which represents protection against collagen and epinephrine induced thromboembolism and expressed as;
Percent Protection=[1−(Ptest/Pcontrol)]×100
Where, Ptest is the number of animals paralyzed/dead in test compound-treated group, and Pcontrol is the total number of animals paralyzed/dead in vehicle treated group. The percent protection refers to the number of animals in compound treated group that were prevented from paralysis/death.

Series [2] deals with human platelets. Description: Collagen induced platelet aggregation in human platelets (in vitro). The note with it: Homo sapiens, Platelet, compound concentration 30 μM, n = 3. The series is classed as cell-based.
In series [3] the test system is ferric chloride induced arterial thrombosis. The series is described as follows: FeCl3 induced carotid artery thrombosis in mice. The class given is in vivo. The note with it: for time to occlusion (TTO) of carotid artery: 1d 4 hr after oral administration, control 9.5±0.4 min. As to the method:
Male Swiss albino mice were anesthetized byurethane (1.25 g/kg, i.p.). The carotid artery was carefully dissected and a pulsed Doppler Probe (LDF 100C, BioPac, USA) was placed around it to record the blood flow velocity and patency of the blood vessels. The carotid artery thrombosis was induced by FeCl3 as follows: a square (1×0.5 mm) of Whatman Chromatography paper was immersed in 10% FeCl3 solution for 5 min and placed on the carotid artery as described earlier. (Kurz K D, et al., Thromb Res 1990; 60(4):269-80; Surin W R et al J Pharmacol Toxicol Methods. 2010; 61(3):287-91) Thrombosis was monitored as the reduction in carotid artery blood flow. The time at which the blood-flow velocity was decreased to zero was recorded as the time to occlusion (TTO) of the carotid artery.

Series [4] relates to human platelets. The series is described as follows: U46619 (thromboxane receptor agonist) induced platelet aggregation. The series is classed as cell-based.
Series [5] concerns human platelets. Description: ADP induced platelet aggregation. The note with it: up to 300 μM. The series is classed as cell-based.
Series [6] deals with human platelets. Description: TRAP (thrombin mimetic SFLLRN) induced platelet aggregation. Conditions: up to 300 μM. The series is classed as cell-based.
The subject of series [7] is human platelets. Description: Collagen related peptide (CRP-XL) induced platelet aggregation. The series is classed as cell-based. Conditions: up to 300 μM.
In series [8] the test system is human platelets. The series is described as follows: Ristocetin induced platelet aggregation. The class given is cell-based. Conditions: up to 300 μM.
The subject of series [9] is human platelets. Description: Arachidonic acid induced platelet aggregation (COX pathway). The class given is cell-based.
The subject of the next series is human plasma. Description: Coagulability of blood by TT, PT and aPTT in human plasma.
A short description of series [10]: Tail bleeding time in mice.

Bounds are passed on as bounds.

Turning to `Cc1ccc(CN2C(=O)CC[C@H]2C(=O)N2CC3CC(CN(Cc4ccc(Cl)cc4)C3)C2)cc1` [Compound 1w, (5S)-5-(7-(4-chlorobenzyl)-3,7-diazabicyclo[3.3.1]nonane-3-carbonyl)-1-(4-methylbenzyl)pyrrolidin-2-one], the inhibition in vivo at 30 µM, 30 µmol/kg in series [1] was found to be 35%. For the same compound, the inhibition (commonly the change of the read-out against control, counted positive when it falls) at 30 µM in the series with human platelets [2] was in the range of 57 to 86%.

Turning to `O=C(N[C@@H](Cc1ccccc1)C(=O)N1CC2CC(CN(Cc3ccccc3)C2)C1)OCc1ccccc1` [Compound 1y, Benzyl(2S)-1-(7-benzyl-3,7-diazabicyclo[3.3.1]nonan-3-yl)-1-oxo-3-phenylpropan-2-yl carbamate], the inhibition in vivo at 30 µM, 30 µmol/kg in series [1] is 55%. The compound further returned an inhibition at 30 µM with human platelets [2] of 22 ± 5%.

Take `Cc1ccc(CN2C(=O)CC[C@H]2C(=O)N2CC3CC(CN(Cc4ccc(Br)cc4)C3)C2)cc1` [Compound 1v, (5S)-5-(7-(4-bromobenzyl)-3,7-diazabicyclo[3.3.1]nonane-3-carbonyl)-1-(4-methylbenzyl)pyrrolidin-2-one]: the inhibition in vivo at 30 µM, 30 µmol/kg in [1] stood at 50%. Besides, in the series with human platelets [2], the inhibition at 30 µM lay in the range of 57 to 86%.

With `O=C([C@@H]1CCC(=O)N1Cc1ccccc1)N1CC2CC(CN(Cc3ccccc3)C2)C1` [Compound 1c, 1-Benzyl-5-(7-benzyl-3,7-diaza-bicyclo[3.3.1]nonane-3-carbonyl)-pyrrolidin-2-one], the inhibition in vivo at 30 µM, 30 µmol/kg in series [1] is 30%. In addition, 30 µM produced 44 ± 13% inhibition with human platelets [2].

Regarding `O=C([C@@H]1CCC(=O)N1Cc1ccc(Br)cc1)N1CC2CC(CN(Cc3ccccc3)C2)C1` [Compound 1o, (5S)-5-(7-(4-benzyl)-3,7-diazabicyclo[3.3.1]nonane-3-carbonyl)-1-(4-bromobenzyl)pyrrolidin-2-one], in [1], the inhibition in vivo at 30 µM, 30 µmol/kg worked out at 40%. Further, the inhibition at 30 µM in the series on human platelets [2] was in the range of 57 to 86%.

As for `Cc1ccc(CN2C(=O)CC[C@H]2C(=O)N2CC3CC(CN(C(=O)c4ccccc4)C3)C2)cc1` [Compound 1s, 5-(7-Benzoyl-3,7-diaza-bicyclo[3.3.1]nonane-3-carbonyl)-1-(4-methyl-benzyl)-pyrrolidin-2-one], the inhibition in vivo at 30 µM, 30 µmol/kg in [1] was 40%. The compound also showed an inhibition at 30 µM in the series on human platelets [2] of 20.5 ± 7.5%.

With `O=C([C@@H]1CCC(=O)N1Cc1c(Cl)cccc1Cl)N1CC2CC(CN(Cc3ccccc3)C2)C1` [Compound 1g, (5S)-5-(7-benzyl-3,7-diazabicyclo[3.3.1]nonane-3-carbonyl)-1-(2,6-dichlorobenzyl)pyrrolidin-2-one], the inhibition in vivo at 30 µM, 30 µmol/kg in [1] came out at 40%. In the series on human platelets [2], this compound came in with an inhibition at 30 µM of 57 to 86%.

Turning to `CC(C)(C)OC(=O)N1CC2CC(C1)CN(C(=O)[C@@H]1CCC(=O)N1Cc1ccc(C#N)cc1)C2` [Compound 1j, tert-butyl-7-((S)-1-(4-cyanobenzyl)-5-oxopyrrolidine-2-carbonyl)3,7diazabicyclo[3.3.1]nonane-3-carboxylate], the inhibition in vivo at 30 µM, 30 µmol/kg in [1] was 55%. Further, the inhibition at 30 µM in the series with human platelets [2] came to 11 ± 3%.

Take `COC(=O)[C@H](c1ccccc1Cl)N1CCc2sccc2C1` [Clopidogrel, reference compound]: the “time to occlusion (TTO) of carotid artery” value in series [3] is at most 23 ± 0.9 min.

`Cc1ccc(CN2C(=O)CC[C@H]2C(=O)N2CC3CC(CN(Cc4ccccc4Br)C3)C2)cc1` [Compound 1u, (5S)-5-(2-bromobenzyl-3,7-diazabicyclo[3.3.1]nonane-3-carbonyl)-1-(4-methylbenzyl)pyrrolidin-2-one]: in [1], the inhibition in vivo at 30 µM, 30 µmol/kg came to 30%. The same compound returned an inhibition at 30 µM with human platelets [2] of 57 to 86%.

On to `Cc1ccc(S(=O)(=O)N2C(=O)CC[C@H]2C(=O)N2CC3CC(CN(Cc4ccccc4)C3)C2)cc1` [Compound 1i, (5S)-5-(7-benzyl-3,7-diazabicyclo[3.3.1]nonane-3-carbonyl)-1-tosylpyrrolidin-2-one], for which the inhibition in vivo at 30 µM, 30 µmol/kg in series [1] came out at 30%. The compound also displayed an inhibition at 30 µM with human platelets [2] of 29 ± 1%.

For `CC(C)(C)OC(=O)N1CC2CC(C1)CN(C(=O)[C@@H]1CCC(=O)N1Cc1ccccc1)C2` [Compound 1a, 7-(1-Benzyl-5-oxo-pyrrolidine-2-carbonyl)-3,7-diaza-bicyclo[3.3.1]nonane-3-carboxylic acid tert-butyl ester], in series [1], the inhibition in vivo at 30 µM, 30 µmol/kg was determined as 40%. In addition, at 30 µM the inhibition in the series on human platelets [2] was 6 ± 14%.

Take `O=C([C@@H]1CCC(=O)N1Cc1ccccc1Br)N1CC2CC(CN(Cc3ccccc3)C2)C1` [Compound 1d, 5-(7-Benzyl-3,7-diaza-bicyclo[3.3.1]nonane-3-carbonyl)-1-(2-bromo-benzyl)-pyrrolidin-2-one]: the inhibition in vivo at 30 µM, 30 µmol/kg in [1] turned out to be 40%. The “protection in collagen-epinephrine induced pulmonary thromboembolism” value in series [1] (mice, after 4 hours (p.o.), 30 μM/kg) is reported as at most 60%. Also, at 30 µM the inhibition with human platelets [4] was 75.5 ± 6%. The “effect against ADP induced platelet aggregation” value in the series with human platelets [5] is reported as “did not exhibit any significant effect”. The “effect against TRAP induced platelet aggregation” value with human platelets [6] was “did not exhibit any significant effect”. In the series on human platelets [7], the “effect against CRP-XL induced platelet aggregation” value is recorded as “did not exhibit any significant effect”. Further, the “effect against Ristocetin induced platelet aggregation” value with human platelets [8] is on record as “did not exhibit any significant effect”. Also, the “inhibition of arachidonic acid induced platelet aggregation” value in the series with human platelets [9] (30 μM) is given as “did not exhibit any inhibition”. In the series on human platelets [9] (300 μM and 500 μM), the “attenuation of arachidonic acid induced platelet aggregation” value was at most 50%. The “prolongation of time to occlusion vs control” value in [3] (4 hr after oral administration) is reported as 2.2 fold. Besides, the “time to occlusion (TTO) of carotid artery” value in series [3] was determined as 19.2 ± 0.9 min. Besides, in the series on human plasma, the “coagulability of blood as assessed by TT, PT and aPTT” value is “did not alter the coagulability of blood”. Besides, the “effect on bleeding tendency” value in series [10] (1 hr after oral dosing, compared against aspirin and clopidogrel) was “mild effect”. Further, in series [10] (after 4 hrs (oral), method doses aspirin 170 μM/kg, Clopidogrel 70 μM/kg), the bleeding time was determined as 8.4 min.

As for `O=C(c1ccccc1)N1CC2CC(C1)CN(C(=O)[C@@H]1CCC(=O)N1Cc1ccccc1Br)C2` [Compound 1q, 5-(7-Benzoyl-3,7-diaza-bicyclo[3.3.1]nonane-3-carbonyl)-1-(2-bromo-benzyl)-pyrrolidin-2-one], the inhibition in vivo at 30 µM, 30 µmol/kg in [1] came out at 60%. The compound also showed an inhibition at 30 µM in the series with human platelets [2] of 25.6 ± 3.55%.

As to `COc1ccc(CN2C(=O)CC[C@H]2C(=O)N2CC3CC(CN(Cc4ccccc4)C3)C2)cc1` [Compound 1p], in series [1], the inhibition in vivo at 30 µM, 30 µmol/kg came to 30%. Further, the inhibition at 30 µM in the series on human platelets [2] is 10 ± 4%.

For `CC(C)(C)OC(=O)N1CC2CC(C1)CN(C(=O)[C@@H]1CCC(=O)N1Cc1ccc(Cl)cc1)C2` [Compound 1k, tert-butyl 7-((S)-1-(4-chlorobenzyl)-5-oxopyrrolidine-2-carbonyl)-3,7-diazabicyclo [3.3.1]nonane-3-carboxylate], the inhibition in vivo at 30 µM, 30 µmol/kg in series [1] was found to be 30%. In the series with human platelets [2], this compound came in with an inhibition at 30 µM of 6 ± 11%.

(Values after US20160214983A1, “3,7-DIAZABICYCLO[3.3.1]NONANE CARBOXAMIDES AS ANTITHROMBOTIC AGENTS” (COUNCIL OF SCIENTIFIC & INDUSTRIAL RESEARCH, priority 2013, published 2016).)
